“Also recorded” adds a separate entry of the source.
Tests used:
[1] = target: T1, human serotonin transporter (Homo sapiens, UniProt P31645); assay: Cerep broad selectivity radioligand binding panel
T1 construct: Cerep
Method: Broad selectivity was assessed at Cerep (Celle l’ Evescault, France), as described in the Cerep catalog, though the determination of the effect of PMP-311 and PMP-072 in in vitro radioligand receptor binding assays with 52 different receptors, channels, and transporters. The specific ligand binding to the receptors is defined as the difference between the total binding, and the nonspecific binding determined in the presence of an excess of unlabelled ligand. The results are expressed as a percent of control specific binding and as the mean percent inhibition of control specific binding obtained in the presence of 10 μM PMP-311 and PMP-072. Individual and mean values are presented in the results section. The IC50 values (concentration causing a half-maximal inhibition of control specific binding) and Hill coefficients (nH) were determined by non-linear regression as described above.

human α7 nAChR = target: T2, human α7 nAChR (Homo sapiens, UniProt P36544); assay: voltage-clamp electrophysiology in Xenopus oocytes; type: biochemical; details: for agonist activity at α7 nAChR ion channel: Xenopus oocyte membrane current, control conditions
T2 construct: expressed in transfected cells; host or cells: Xenopus laevis oocytes injected with cRNA; clones from Dr. Jon Lindstrom (α7) and Dr. Millet Treinin (RIC-3)
T2 sequence (P36544 23-502): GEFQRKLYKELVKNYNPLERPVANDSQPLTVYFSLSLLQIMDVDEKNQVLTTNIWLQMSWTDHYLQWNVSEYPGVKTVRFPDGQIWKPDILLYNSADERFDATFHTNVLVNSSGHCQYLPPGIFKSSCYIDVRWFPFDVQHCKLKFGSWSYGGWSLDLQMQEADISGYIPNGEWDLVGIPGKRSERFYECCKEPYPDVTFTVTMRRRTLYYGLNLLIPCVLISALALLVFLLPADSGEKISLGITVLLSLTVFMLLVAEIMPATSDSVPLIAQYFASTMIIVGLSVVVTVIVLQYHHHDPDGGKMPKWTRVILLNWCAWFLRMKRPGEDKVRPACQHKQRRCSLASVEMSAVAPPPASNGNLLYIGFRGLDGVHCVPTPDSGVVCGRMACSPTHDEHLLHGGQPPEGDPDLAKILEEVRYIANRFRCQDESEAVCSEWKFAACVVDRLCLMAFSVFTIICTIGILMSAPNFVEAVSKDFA
Method: Human nAChR receptor clones were obtained from Dr. Jon Lindstrom (University of Pennsylvania, Philadelphia, PA). The RIC-3 clone was obtained from Dr. Millet Treinin (Hebrew University, Jerusalem, Israel). Subsequent to linearization and purification of cloned cDNAs, RNA transcripts were prepared in vitro using the appropriate mMessage Machine kit from Ambion Inc. (Austin, TX).
The preparation of Xenopus laevis oocytes for RNA expression was conducted as previously described. Stage 5 oocytes were isolated and injected with […] (5–20 ng) of each subunit cRNAs. Recordings were conducted 2–5 days after injection. RNA coding for human α7 nAChR was routinely co-injected with the cDNA for human RIC-3, an accessory protein that improves and accelerates α7 nAChR expression without affecting the pharmacological properties of the receptors.
Experiments were conducted using OpusXpress6000A (Molecular Devices, Union City, CA) as described before. ACh applications were 12 seconds in duration.
Each oocyte received two initial control applications of 300 μM ACh, followed by the experimental drug application, and subsequent control application of 300 μM ACh, unless otherwise indicated. Responses to experimental drug applications were determined relative to the preceding ACh control responses in order to normalize the data, compensating for the varying levels of channel expression among the oocytes. Responses for α7 nAChR were calculated as net charge, since peak currents inaccurately report the agonist concentration dependence of α7 nAChR-mediated responses. For experiments measuring the effects of ACh and the experimental compounds on allosterically modulated receptors, following the acquisition of baseline responses, cells were given a 60 s application of 300 μM PNU-120596. […] For all experiments, means and standard error of the mean (SEM) were calculated from the normalized responses of at least four oocytes for each experimental concentration, plotted using Kaleidagraph 3.52 (Synergy Software, Reading, PA), and curves were generated from the Hill equation: Response=IMax[agonist]^n/[agonist]^n+(EC50)^n where Imax denotes the maximal response for a particular agonist/subunit combination, and n represents the Hill coefficient. Imax, n, and the EC50 were all unconstrained for the fitting procedures except in the case of the ACh concentration-response curves.

[2] = test system: collagen-induced arthritis; assay: collagen-induced arthritis in DBA/1 mice; details: for disease incidence and onset: 5 mg/kg oral daily day 20-34
Method: Collagen-induced arthritis was induced and evaluated as previously described. The severity of arthritis was assessed using an established semiquantitative scoring system (0–4; 0 = normal, 1 = swelling in 1 joint, 2 = swelling in >1 joint, 3 = swelling in the entire paw, and 4 = deformity and/or ankylosis. The cumulative score for all 4 paws of each mouse was used to represent overall disease severity and progression. Hind paw ankle joint thickness was measured using a caliper For the evaluation of incidence, mice were considered to have arthritis if the arthritis score increased by at least 1 point for 2 or more following days.
In study 1, we evaluated the role of the two novel α7nAChR-specific modulators in CIA. The receptors were stimulated by oral gavage of PMP-311 (5 mg/kg; n = 15) or PMP-072 (5 mg/kg; n = 17). The compounds were administered once a day from day 20 until the end of the experiment (day 34). Control mice received saline. In study 2, we evaluated the anti-inflammatory effects of different dosages of the α7nAChR-specific agonists. PMP-311 (2 or 10 mg/kg; n = 15) and PMP-072 (10 or 20 mg/kg; n = 15) were administered in the same way as in study 1. In both studies, mice were inspected daily for signs of arthritis and thickness of hind paws was measured using a caliper from day 16 till sacrifice by 2 independent observers (MAvM and JK) who were not aware of the treatment.
Hind paws were used for radiographic evaluation. Joint destruction was scored on a scale of 0–4, where 0 = no damage, 1 = demineralization, 2 = 1 or 2 erosions, 3 = severe erosions, and 4 = complete destruction of the joints. The radiographs were scored by 2 independent observers (MAvM and MJV) in a blinded manner; minor differences in scoring between the observers were resolved by mutual agreement.
Hind paws were fixed for 24 hours in 10% buffered formalin and decalcified in 15% EDTA. The paws were then embedded in paraffin, and serial 5 μm sagittal sections of whole hind paws were cut and stained with hematoxylin and eosin (HE). Two independent observers (MAvM and MJV) assessed the tissue for the degree of synovitis by microscopic evaluation, under blinded conditions, as described previously. Synovitis was graded on a scale of 0 (no inflammation) to 3 (severely inflamed joint) based on the extent of infiltration of inflammatory cells into the synovium.
To evaluate the effects of different treatments, we determined the change in clinical arthritis scores in each mouse from the start of treatment until the end of the experiment. AUC for the change in arthritis scores were calculated. The significance of the differences in the mean changes in scores (clinical, radiologic and histologic) between groups was determined by Kruskal-Wallis test followed by Mann-Whitney U test (SPSS version 12.0.2; SPSS, Chicago, IL). Incidence was compared using Kaplan-Meier survival analysis (GraphPad Prism). P values less than 0.05 were considered statistically significant.

[3] = study 1, 5 mg/kg oral daily day 20-34

T1 sequence (P31645 whole entry): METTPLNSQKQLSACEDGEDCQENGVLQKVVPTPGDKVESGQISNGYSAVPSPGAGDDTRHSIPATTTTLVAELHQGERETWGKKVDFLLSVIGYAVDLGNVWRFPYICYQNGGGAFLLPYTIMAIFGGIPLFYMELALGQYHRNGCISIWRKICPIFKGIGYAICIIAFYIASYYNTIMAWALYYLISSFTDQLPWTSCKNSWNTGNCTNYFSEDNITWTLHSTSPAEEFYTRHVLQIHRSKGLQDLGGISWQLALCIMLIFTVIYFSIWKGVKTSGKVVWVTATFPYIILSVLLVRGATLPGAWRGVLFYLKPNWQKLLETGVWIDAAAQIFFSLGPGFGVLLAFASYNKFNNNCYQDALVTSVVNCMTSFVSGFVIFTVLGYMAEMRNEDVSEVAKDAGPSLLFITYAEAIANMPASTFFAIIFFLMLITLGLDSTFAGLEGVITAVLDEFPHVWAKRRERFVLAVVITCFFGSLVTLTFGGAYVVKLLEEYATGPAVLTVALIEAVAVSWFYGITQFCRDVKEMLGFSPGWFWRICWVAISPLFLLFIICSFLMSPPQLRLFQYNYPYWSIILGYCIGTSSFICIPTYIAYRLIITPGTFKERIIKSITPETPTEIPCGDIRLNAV

Question: Which Ki [1] does the source give for `COc1ccc(NC(=O)N2CCNC[C@@H]2COc2cccnc2)cc1` [PMP-072, (R)-N-(4-methoxyphenyl)-2-((pyridin-3-yloxy)methyl)piperazine-1-carboxamide] here?
Answer: 1800 nM

Question: What about the “agonist activity at α7 nAChR ion channel” value (human α7 nAChR) of the same compound?
Answer: did not appear to be an agonist

Question: And the IC50 (human α7 nAChR; co-applied with 60 μM ACh, read-out: IC50, antagonism of ACh-stimulated α7 nAChR channel activity)?
Answer: 20 to 50 nM

Question: What about the “effect on arthritis activity” value ([2]; 5 mg/kg oral daily) of the same compound?
Answer: did not significantly ameliorate arthritis activity; also recorded: trend towards improvement

Question: And the “joint destruction (radiographic score)” value ([2]; 5 mg/kg oral daily)?
Answer: did not reduce bone degradation

Question: And the “disease incidence and onset” value [2]?
Answer: trend towards reduced incidence of disease

Question: What about the “joint destruction (radiographic score)” value ([2]; 10 mg/kg oral daily) of the same compound?
Answer: trend towards reduced joint destruction

Question: And the paw swelling ([2]; 10 mg/kg oral daily)?
Answer: decrease in paw swelling

Question: What about the “reduction in arthritis score compared to saline” value (from here on “reduction in arthritis score”) ([2]; 10 mg/kg oral daily) of the same compound?
Answer: 48%

Question: And the “synovial inflammation (synovitis score)” value ([2]; 10 mg/kg oral daily)?
Answer: significantly lower scores for synovitis

Question: And the “effect on arthritis score” value ([2]; 20 mg/kg oral daily)?
Answer: no improvement

Question: And the tolerability of treatment [2, 3]?
Answer: tolerated the drug treatment well

Question: And the tolerability of treatment ([2]; study 2, PMP-311 2 and 10 mg/kg, PMP-072 10 and 20 mg/kg)?
Answer: tolerated the drug treatments well

Question: How did the inhibition at 10 µM ([1]; 10 μM) turn out when `c1cncc(OC[C@@H]2CNCCN2c2nc3ncccc3o2)c1` [PMP-311, (S)-2-(2-((Pyridin-3-yloxy)methyl)piperazin-1-yl)oxazolo[4,5-b]pyridine] was run?
Answer: 72%

Question: What about the “agonist activity at α7 nAChR ion channel” value (human α7 nAChR) of the same compound?
Answer: elicited a typical inward current

Question: What about the EC50 (human α7 nAChR; Xenopus oocytes, read-out: EC50 of α7 nAChR activation) of the same compound?
Answer: ~200 nM

Question: What about the Emax (human α7 nAChR; net charge, normalized to 300 μM ACh, read-out: maximum response compared to ACh) of the same compound?
Answer: ~85%

Question: What about the “joint destruction (radiographic score)” value ([2]; 2 mg/kg oral daily) of the same compound?
Answer: significant reduction in joint destruction

Question: What about the “mice that developed arthritis” value ([2]; 2 mg/kg oral daily) of the same compound?
Answer: 14 out of 15

Question: What about the paw swelling ([2]; 2 mg/kg oral daily) of the same compound?
Answer: decreased

Question: And the “reduction in arthritis score” value ([2]; 2 mg/kg oral daily)?
Answer: 40%

Question: And the synovial inflammation ([2]; 2 mg/kg oral daily)?
Answer: significant reduction

Question: And the “animals that did not develop arthritis” value ([2]; 5 mg/kg oral daily)?
Answer: six out of 15

Question: And the “effect on arthritis activity” value ([2]; 5 mg/kg oral daily)?
Answer: amelioration of clinical signs of arthritis

Question: And the “joint destruction (radiographic score)” value ([2]; 5 mg/kg oral daily)?
Answer: significant reduction in joint destruction

Question: What about the “synovial inflammation (HE staining of knee joints)” value ([2]; 5 mg/kg oral daily) of the same compound?
Answer: significant reduction of synovial inflammation

Question: What about the “disease incidence and onset” value [2] of the same compound?
Answer: reduced disease incidence and delayed onset of disease

Question: What about the “reduction in clinical score compared to saline” value ([2]; 5 mg/kg oral daily, dose-response comparison) of the same compound?
Answer: 49%

Question: And the “joint destruction (radiographic score)” value ([2]; 10 mg/kg oral daily)?
Answer: significantly decreased

Question: And the “reduction in arthritis score” value ([2]; 10 mg/kg oral daily)?
Answer: 39%

Question: And the “decrease in paw swelling compared to saline-treated mice” value [2, 3]?
Answer: 39%

Question: What about the “decrease of AUC of clinical score compared to control mice” value [2, 3] of the same compound?
Answer: 51%

— PMC4305287, “Two Novel α7 Nicotinic Acetylcholine Receptor Ligands: In Vitro Properties and Their Efficacy in Collagen-Induced Arthritis in Mice” (PLoS ONE, 2015)
